In ChEMBL document CHEMBL1201862, “PubChem BioAssay data set” (2004):
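Values below derive from 48-hour exposures of cells grown in 96-well plates, with endpoints linearly interpolated between the two concentrations bracketing the appropriate inhibition level. The concentration for 50% growth inhibition is given as GI50.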 Calls of active or inactive are those of the source. Rule as the data show it: active = GI50 up to about 1.1 µM and inactive = higher.

Legend:
Assay in all cases: NCI-60 cell line screen, 48 h
[1] = tested on: NCI-H460
[2] = tested on: BT-549
[3] = tested on: SK-MEL-28
[4] = tested on: SF-295
[5] = tested on: TK-10
[6] = tested on: U-251
[7] = tested on: Hs-578T
[8] = tested on: ACHN
[9] = tested on: CAKI-1
[10] = tested on: SR
[11] = tested on: IGROV-1
[12] = tested on: SN12C
[13] = tested on: K562
[14] = tested on: KM12
[15] = tested on: OVCAR-5
[16] = tested on: HOP-92
[17] = tested on: SK-MEL-2
[18] = tested on: UACC-62
[19] = tested on: HT-29
[20] = tested on: DLD-1

| Structure (SMILES) | GI50 [1] | GI50 [2] | GI50 [3] | GI50 [4] | GI50 [5] | GI50 [6] | GI50 [7] | GI50 [8] | GI50 [9] | GI50 [10] | GI50 [11] | GI50 [12] | GI50 [13] | GI50 [14] | GI50 [15] | GI50 [16] | GI50 [17] | GI50 [18] | GI50 [19] | GI50 [20] |
| --- | --- | --- | --- | --- | --- | --- | --- | --- | --- | --- | --- | --- | --- | --- | --- | --- | --- | --- | --- | --- |
| CCCCN1CSC(=S)N(Cc2ccccc2)C1 | 31.9 µM (inactive) | > 84.9 µM (inactive) | > 100 µM (inactive) | 48.1 µM (inactive) | 28.4 µM (inactive) | 44.6 µM (inactive) | > 70.3 µM (inactive) | > 100 µM (inactive) | > 100 µM (inactive) | 31.7 µM (inactive) | 82.2 µM (inactive) | > 71 µM (inactive) | 31.8 µM (inactive) | 31.1 µM (inactive) | > 100 µM (inactive) | > 75.9 µM (inactive) | > 59.3 µM (inactive) | 41.2 µM (inactive) | 58.6 µM (inactive) | – |
| O=C(O)[C@H](NS(=O)(=O)c1ccc([N+](=O)[O-])cc1)c1ccccc1 | > 100 µM (inactive) | – | > 100 µM (inactive) | > 100 µM (inactive) | > 100 µM (inactive) | > 100 µM (inactive) | – | > 100 µM (inactive) | > 100 µM (inactive) | – | > 100 µM (inactive) | > 100 µM (inactive) | > 100 µM (inactive) | > 100 µM (inactive) | > 100 µM (inactive) | > 100 µM (inactive) | > 100 µM (inactive) | > 100 µM (inactive) | > 100 µM (inactive) | > 100 µM (inactive) |
| COC1(C)CP(=O)(OC(C)C)CC(C)=C1Cl (configuration not stated) | 18.3 µM (inactive) | 12.7 µM (inactive) | 21.7 µM (inactive) | 11.8 µM (inactive) | 15.9 µM (inactive) | 10.6 µM (inactive) | 9.84 µM (inactive) | 18.4 µM (inactive) | 17 µM (inactive) | 7.19 µM (inactive) | 11.6 µM (inactive) | 15.2 µM (inactive) | 3.36 µM (inactive) | 15.5 µM (inactive) | 18.8 µM (inactive) | 11.2 µM (inactive) | 6.41 µM (inactive) | 10.2 µM (inactive) | 12.3 µM (inactive) | – |
| CCN1C[C@]2(COC)[C@H](O)C[C@H](OC)[C@]34C1[C@H]([C@H](OC)[C@H]23)[C@]1(OC(C)=O)[C@H]2[C@@H](OC(=O)c3ccccc3)[C@](O)(C[C@H]24)[C@@H](OC)[C@@H]1O | > 100 µM (inactive) | > 100 µM (inactive) | > 100 µM (inactive) | > 100 µM (inactive) | > 100 µM (inactive) | > 100 µM (inactive) | > 100 µM (inactive) | > 100 µM (inactive) | > 100 µM (inactive) | > 100 µM (inactive) | > 100 µM (inactive) | > 100 µM (inactive) | > 100 µM (inactive) | > 100 µM (inactive) | > 100 µM (inactive) | > 100 µM (inactive) | > 100 µM (inactive) | > 100 µM (inactive) | > 100 µM (inactive) | – |
| COc1cc2c(cc1OCc1ccccc1)NC(=S)[C@@H]1CCCN1C2=S | > 100 µM (inactive) | > 100 µM (inactive) | > 100 µM (inactive) | 37.5 µM (inactive) | > 100 µM (inactive) | 49.4 µM (inactive) | 4.84 µM (inactive) | > 100 µM (inactive) | > 100 µM (inactive) | 48.5 µM (inactive) | 80.7 µM (inactive) | > 100 µM (inactive) | 45.2 µM (inactive) | 30.1 µM (inactive) | > 100 µM (inactive) | 94 µM (inactive) | > 100 µM (inactive) | > 100 µM (inactive) | 18.2 µM (inactive) | – |
| COc1cc(C(Cc2ccccc2)NC(C)=O)oc(=O)c1 (configuration not stated) | > 100 µM (inactive) | – | > 100 µM (inactive) | > 100 µM (inactive) | 4.14 µM (inactive) | > 100 µM (inactive) | – | > 100 µM (inactive) | > 100 µM (inactive) | – | > 100 µM (inactive) | > 100 µM (inactive) | > 100 µM (inactive) | > 100 µM (inactive) | > 100 µM (inactive) | > 100 µM (inactive) | > 100 µM (inactive) | > 100 µM (inactive) | > 100 µM (inactive) | > 100 µM (inactive) |
| COc1cc2c(cc1O)CCN[C@@]21CS[C@H]2c3c(OC(C)=O)c(C)c4c(c3C(COC1=O)N1C2C2NC(Cc3cc(C)c(OC)c(O)c32)[C@@H]1C#N)OCO4 (some centres not stated) | < 0.01 µM (active) | – | < 0.01 µM (active) | – | < 0.01 µM (active) | < 0.01 µM (active) | – | < 0.01 µM (active) | – | < 0.01 µM (active) | < 0.01 µM (active) | < 0.01 µM (active) | < 0.01 µM (active) | – | – | – | < 0.01 µM (active) | < 0.01 µM (active) | < 0.01 µM (active) | < 0.01 µM (active) |
| CNC1=C(C)C(=O)C(C)=C(C(C)(C)CC(=O)n2cc(F)c(=O)[nH]c2=O)C1=O | 2.99 µM (inactive) | – | > 30.9 µM (inactive) | > 67.9 µM (inactive) | > 59.3 µM (inactive) | > 75.9 µM (inactive) | – | 38.5 µM (inactive) | 22.8 µM (inactive) | – | 67 µM (inactive) | 8.67 µM (inactive) | 32 µM (inactive) | 14.5 µM (inactive) | > 100 µM (inactive) | > 100 µM (inactive) | > 63.5 µM (inactive) | 45.4 µM (inactive) | 12.5 µM (inactive) | 12.8 µM (inactive) |
| O=C1COc2cc3c(cc2N1)SCC(=O)N3 | – | – | > 100 µM (inactive) | > 100 µM (inactive) | > 100 µM (inactive) | – | – | – | > 100 µM (inactive) | > 100 µM (inactive) | > 100 µM (inactive) | – | > 100 µM (inactive) | > 100 µM (inactive) | – | > 100 µM (inactive) | > 100 µM (inactive) | > 100 µM (inactive) | > 100 µM (inactive) | > 100 µM (inactive) |
| COc1ccc(C2C(C(=O)O)=C(COC(C)=O)Oc3cc4c(cc32)OCO4)c(OC)c1 (configuration not stated) | > 100 µM (inactive) | – | > 100 µM (inactive) | > 100 µM (inactive) | > 100 µM (inactive) | > 100 µM (inactive) | – | > 100 µM (inactive) | > 100 µM (inactive) | – | > 100 µM (inactive) | > 100 µM (inactive) | > 100 µM (inactive) | – | – | 90.6 µM (inactive) | > 100 µM (inactive) | > 100 µM (inactive) | > 100 µM (inactive) | > 100 µM (inactive) |
| CCOc1cc2ccc3c4cc(OC)c(OC)cc4cnc3c2cc1OCC | > 100 µM (inactive) | – | > 100 µM (inactive) | > 100 µM (inactive) | > 100 µM (inactive) | > 100 µM (inactive) | – | > 100 µM (inactive) | > 100 µM (inactive) | – | > 100 µM (inactive) | > 100 µM (inactive) | > 100 µM (inactive) | > 100 µM (inactive) | > 100 µM (inactive) | – | > 100 µM (inactive) | > 100 µM (inactive) | > 100 µM (inactive) | > 100 µM (inactive) |
| NCC1(N2CCOCC2)C2CCCC21CO (configuration not stated) | > 100 µM (inactive) | – | > 100 µM (inactive) | > 100 µM (inactive) | – | > 100 µM (inactive) | – | > 100 µM (inactive) | > 100 µM (inactive) | > 100 µM (inactive) | > 100 µM (inactive) | > 100 µM (inactive) | > 100 µM (inactive) | > 100 µM (inactive) | > 100 µM (inactive) | > 100 µM (inactive) | > 100 µM (inactive) | – | > 100 µM (inactive) | > 100 µM (inactive) |
| COc1cc(CCC(=O)O)c2cc3ccccc3cc2c1O | 23.2 µM (inactive) | 17.1 µM (inactive) | 22.4 µM (inactive) | 20 µM (inactive) | 33.3 µM (inactive) | 16.4 µM (inactive) | 39.6 µM (inactive) | 17.3 µM (inactive) | 19.6 µM (inactive) | 15.6 µM (inactive) | 18.7 µM (inactive) | 17.8 µM (inactive) | 20.8 µM (inactive) | 20.5 µM (inactive) | 20.4 µM (inactive) | 30.9 µM (inactive) | 18.3 µM (inactive) | 18.4 µM (inactive) | 21.1 µM (inactive) | – |
| CCOC1CC(=O)c2c(Br)sc(Br)c21 (configuration not stated) | 20.7 µM (inactive) | 24.4 µM (inactive) | 19.6 µM (inactive) | 27.9 µM (inactive) | 20.7 µM (inactive) | 16.9 µM (inactive) | 37.8 µM (inactive) | 19.7 µM (inactive) | 17.3 µM (inactive) | 21.7 µM (inactive) | 15.5 µM (inactive) | 24.9 µM (inactive) | 17.3 µM (inactive) | 19.3 µM (inactive) | 23.7 µM (inactive) | 17.5 µM (inactive) | 17.5 µM (inactive) | 18.7 µM (inactive) | 21.3 µM (inactive) | – |
| COc1ccc([Se][Se]c2ccc(OC)cc2OC)c(OC)c1 | 4.29 µM (inactive) | – | 2.16 µM (inactive) | 2.1 µM (inactive) | 4.06 µM (inactive) | – | – | 2.86 µM (inactive) | 3.54 µM (inactive) | – | 3.25 µM (inactive) | 2 µM (inactive) | 2.88 µM (inactive) | 3.52 µM (inactive) | – | 2.35 µM (inactive) | 4.08 µM (inactive) | 1.93 µM (inactive) | 3.14 µM (inactive) | 3.3 µM (inactive) |
| COc1ccc(CC2CCc3nc(N)nc(N)c3C2)cc1OC (configuration not stated) | 0.0411 µM (active) | 0.246 µM (active) | 36.4 µM (inactive) | 0.168 µM (active) | 7.6 µM (inactive) | 38.6 µM (inactive) | > 56.1 µM (inactive) | 0.16 µM (active) | 2.29 µM (inactive) | 3.7 µM (inactive) | 0.11 µM (active) | 22.9 µM (inactive) | 18.3 µM (inactive) | 1.28 µM (inactive) | 1.51 µM (inactive) | 36 µM (inactive) | > 57.3 µM (inactive) | 0.0612 µM (active) | 1.79 µM (inactive) | – |
